According to patent US12492204B2, “Substituted (7H-pyrrolo[2,3-D]pyrimidin-4-yl) amino compounds useful as JAK 1 inhibitors” (CHEMWERTH, INC., priority 2019, dated 2025):

Assays:
JAK1 = JAK1 (Homo sapiens (Human), UniProt P23458); assay: JAK1 enzymatic assay; format: biochemical; details: for IC50: ATP 66 μM, Peptide D; for selectivity for JAK1 over JAK2 / selectivity for JAK1 over JAK3: from enzymatic IC50 values; for selectivity for JAK1 over JAK2: JAK1 vs JAK2; for selectivity for JAK1 over JAK3: JAK1 vs JAK3
Procedure: (§1) A. JAK1, JAK2, and JAK3 Enzymatic Assays
(§2) The JAK enzymatic assay used the following reagents.
(§3) Preparation of assay plate. Each sample or reference compound was diluted to 50× the desired highest inhibitor concentration with DMSO. Each sample or reference compound was serially diluted using a 96-well source plate so that there were 10 concentrations for testing. 10 μL from each well of the source plate was transferred to a 96-well intermediate plate. […] 5 μL from each well of the 96-well intermediate plate was transferred to a 384-well plate.
(§4) Kinase reaction. […] The term “max” refers to the DMSO control and “min” stands for low control. Curve-fitting of the data was performed using Xlfit excel add-in version 5.4.0.8 to obtain IC50 values. Equation used was Y=Bottom+(Top−Bottom)/(1+(Log IC50/X)^HillSlope. The peptide substrates used for each kinase, peptide concentration, enzyme concentration, and ATP concentrations are presented in TABLE 2.

JAK3 = JAK3 (Homo sapiens (Human), UniProt P52333); assay: JAK3 enzymatic assay; format: biochemical; details: ATP 6.2 μM, Peptide22
Procedure: as §1, §2
JAK3 (Carna Bio, USA, Inc. Natick, MA, Cat.No. 08-046)
as §3, §4

TYK2 = TYK2 (Homo sapiens (Human), UniProt P29597); assay: TYK2 enzymatic assay; format: biochemical; details: ATP 16 μM, Peptide30
JAK2 = JAK2 (Homo sapiens (Human), UniProt O60674); assay: JAK2 enzymatic assay; format: biochemical; details: ATP 6.5 μM, Peptide22
Procedure: as §1, §2
JAK2 (Carna Bio, USA, Inc. Natick, MA, Cat.No. 08-045)
as §3, §4

[1] = Metabolic stability assay (liver microsomes); format: in vitro ADME; details: dog liver microsomes; for Percent Remaining (%) 0 min / Percent Remaining (%) 5 min / Percent Remaining (%) 15 min / Percent Remaining (%) 30 min / Percent Remaining (%) 45 min: mean; for half-lives as compared with the reference compounds: vs Oclacitinib and ketanserin; for CLint scaled at 1 µM / half-life at 1 µM: pooled liver microsomes, pH 7.4
Procedure: Stock solutions of the sample and reference compounds were prepared in DMSO (10 mM). A spiking solution (500 μM) was prepared for each sample compound and reference compound by diluting 10 μL of the stock solution in ACN (190 μL). A microsomal spiking solution having a microsome concentration of 0.75 mg/mL was prepared for each sample: 1.5 μL of the respective 500 μM spiking solution was mixed with 18.75 μL microsomal solution (pooled liver microsomes, 20 mg/mL in 250 mM sucrose, Corning, Cat. No. 452601, Lot. No. 8176003) and 479.75 μL buffer (0.1 M potassium phosphate buffer, 1.0 mM EDTA, pH 7.4). The microsomal spiking solutions were cooled on ice. Assay plates with wells designated for different time points (0, 5, 15, 30 and 45 minutes) were cooled on ice. 30 μL of each microsomal spiking solution was added to the wells designated for different time points (0, 5, 15, 30 and 45 minutes). 135 μL of ACN containing IS was added to the wells of the plate labelled 0 minutes followed by 15 μL of the NaDPH stock solution (6 mM NaDPH in 0.1 M Potassium Phosphate buffer, 1.0 mM EDTA, pH 7.4). The plates for 5, 15, 30 and 45 minutes were incubated at 37° C. for 5 minutes. At 5 min, […], 30 min, and 45 min, 135 μL of ACN containing IS was added to the wells of the corresponding plates to quench the reaction. The plates were shaken [IKA vibrator, MTS 2/4] for 10 minutes and centrifuged at 5594 G for 15 minutes (Thermo Multifuge×3R). 50 μL of the supernatant from each well was transferred to a 96-well sample plate containing 50 μL of ultrapure water (Millipore, ZMQS50F01) for LC-MS analysis.

JAK1, sequence (P23458 whole entry): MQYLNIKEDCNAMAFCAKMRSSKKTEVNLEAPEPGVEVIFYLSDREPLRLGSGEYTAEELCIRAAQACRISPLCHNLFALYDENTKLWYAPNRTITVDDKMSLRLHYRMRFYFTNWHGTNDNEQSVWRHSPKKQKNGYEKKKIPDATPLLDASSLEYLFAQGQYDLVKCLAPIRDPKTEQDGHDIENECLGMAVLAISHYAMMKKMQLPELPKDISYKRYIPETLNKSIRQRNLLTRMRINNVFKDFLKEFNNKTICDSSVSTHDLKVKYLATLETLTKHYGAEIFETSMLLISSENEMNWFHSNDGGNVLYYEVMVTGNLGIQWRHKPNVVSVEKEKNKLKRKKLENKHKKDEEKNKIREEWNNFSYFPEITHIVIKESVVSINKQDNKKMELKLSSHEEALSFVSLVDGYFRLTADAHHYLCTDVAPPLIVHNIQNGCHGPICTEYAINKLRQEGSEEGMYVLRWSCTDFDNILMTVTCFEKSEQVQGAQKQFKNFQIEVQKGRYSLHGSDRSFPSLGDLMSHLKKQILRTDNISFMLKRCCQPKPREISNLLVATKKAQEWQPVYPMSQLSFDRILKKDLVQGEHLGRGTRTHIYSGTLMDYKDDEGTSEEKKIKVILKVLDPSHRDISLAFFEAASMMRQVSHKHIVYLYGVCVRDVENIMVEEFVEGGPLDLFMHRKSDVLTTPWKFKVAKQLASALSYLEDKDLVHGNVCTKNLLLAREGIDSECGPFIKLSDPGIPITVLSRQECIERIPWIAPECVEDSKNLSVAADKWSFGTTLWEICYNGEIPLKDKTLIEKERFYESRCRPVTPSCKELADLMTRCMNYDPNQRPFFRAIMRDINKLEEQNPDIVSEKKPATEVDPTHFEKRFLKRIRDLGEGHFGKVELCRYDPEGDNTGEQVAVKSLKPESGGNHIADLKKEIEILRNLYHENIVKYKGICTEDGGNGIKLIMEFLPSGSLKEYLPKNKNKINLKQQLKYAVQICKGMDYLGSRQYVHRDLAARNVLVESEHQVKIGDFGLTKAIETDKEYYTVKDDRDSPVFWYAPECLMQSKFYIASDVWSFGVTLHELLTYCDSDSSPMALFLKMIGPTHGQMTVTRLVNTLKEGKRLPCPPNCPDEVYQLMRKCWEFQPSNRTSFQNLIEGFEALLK
JAK3, sequence (P52333 whole entry): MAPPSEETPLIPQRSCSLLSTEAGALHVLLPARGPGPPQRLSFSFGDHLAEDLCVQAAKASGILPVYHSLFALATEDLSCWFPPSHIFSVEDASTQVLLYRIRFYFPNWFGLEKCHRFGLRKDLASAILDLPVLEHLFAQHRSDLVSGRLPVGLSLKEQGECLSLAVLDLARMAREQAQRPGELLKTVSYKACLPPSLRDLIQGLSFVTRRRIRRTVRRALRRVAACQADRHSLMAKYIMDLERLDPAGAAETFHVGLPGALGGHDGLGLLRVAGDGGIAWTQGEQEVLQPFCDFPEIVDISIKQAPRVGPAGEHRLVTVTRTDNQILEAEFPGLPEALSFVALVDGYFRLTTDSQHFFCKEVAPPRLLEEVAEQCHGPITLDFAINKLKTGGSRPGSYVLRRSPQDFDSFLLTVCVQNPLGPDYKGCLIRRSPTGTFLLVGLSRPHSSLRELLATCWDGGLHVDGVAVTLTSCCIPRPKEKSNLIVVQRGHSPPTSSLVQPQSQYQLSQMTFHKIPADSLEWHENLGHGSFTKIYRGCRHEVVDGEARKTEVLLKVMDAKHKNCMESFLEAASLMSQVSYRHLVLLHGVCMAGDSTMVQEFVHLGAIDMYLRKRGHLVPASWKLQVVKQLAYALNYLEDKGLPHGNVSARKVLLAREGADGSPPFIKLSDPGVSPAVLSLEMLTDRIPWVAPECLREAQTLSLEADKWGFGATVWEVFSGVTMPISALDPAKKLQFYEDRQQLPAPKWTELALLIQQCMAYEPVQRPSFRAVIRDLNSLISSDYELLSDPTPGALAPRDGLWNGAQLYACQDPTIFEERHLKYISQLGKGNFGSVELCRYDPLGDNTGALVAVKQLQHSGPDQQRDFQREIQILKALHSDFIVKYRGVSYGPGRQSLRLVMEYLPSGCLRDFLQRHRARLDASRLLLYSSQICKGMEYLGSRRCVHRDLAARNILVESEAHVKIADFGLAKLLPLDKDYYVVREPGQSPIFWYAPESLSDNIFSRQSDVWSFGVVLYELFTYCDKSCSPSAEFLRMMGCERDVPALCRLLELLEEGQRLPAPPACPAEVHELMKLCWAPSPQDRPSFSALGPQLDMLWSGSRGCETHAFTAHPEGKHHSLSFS
TYK2, sequence (P29597 whole entry): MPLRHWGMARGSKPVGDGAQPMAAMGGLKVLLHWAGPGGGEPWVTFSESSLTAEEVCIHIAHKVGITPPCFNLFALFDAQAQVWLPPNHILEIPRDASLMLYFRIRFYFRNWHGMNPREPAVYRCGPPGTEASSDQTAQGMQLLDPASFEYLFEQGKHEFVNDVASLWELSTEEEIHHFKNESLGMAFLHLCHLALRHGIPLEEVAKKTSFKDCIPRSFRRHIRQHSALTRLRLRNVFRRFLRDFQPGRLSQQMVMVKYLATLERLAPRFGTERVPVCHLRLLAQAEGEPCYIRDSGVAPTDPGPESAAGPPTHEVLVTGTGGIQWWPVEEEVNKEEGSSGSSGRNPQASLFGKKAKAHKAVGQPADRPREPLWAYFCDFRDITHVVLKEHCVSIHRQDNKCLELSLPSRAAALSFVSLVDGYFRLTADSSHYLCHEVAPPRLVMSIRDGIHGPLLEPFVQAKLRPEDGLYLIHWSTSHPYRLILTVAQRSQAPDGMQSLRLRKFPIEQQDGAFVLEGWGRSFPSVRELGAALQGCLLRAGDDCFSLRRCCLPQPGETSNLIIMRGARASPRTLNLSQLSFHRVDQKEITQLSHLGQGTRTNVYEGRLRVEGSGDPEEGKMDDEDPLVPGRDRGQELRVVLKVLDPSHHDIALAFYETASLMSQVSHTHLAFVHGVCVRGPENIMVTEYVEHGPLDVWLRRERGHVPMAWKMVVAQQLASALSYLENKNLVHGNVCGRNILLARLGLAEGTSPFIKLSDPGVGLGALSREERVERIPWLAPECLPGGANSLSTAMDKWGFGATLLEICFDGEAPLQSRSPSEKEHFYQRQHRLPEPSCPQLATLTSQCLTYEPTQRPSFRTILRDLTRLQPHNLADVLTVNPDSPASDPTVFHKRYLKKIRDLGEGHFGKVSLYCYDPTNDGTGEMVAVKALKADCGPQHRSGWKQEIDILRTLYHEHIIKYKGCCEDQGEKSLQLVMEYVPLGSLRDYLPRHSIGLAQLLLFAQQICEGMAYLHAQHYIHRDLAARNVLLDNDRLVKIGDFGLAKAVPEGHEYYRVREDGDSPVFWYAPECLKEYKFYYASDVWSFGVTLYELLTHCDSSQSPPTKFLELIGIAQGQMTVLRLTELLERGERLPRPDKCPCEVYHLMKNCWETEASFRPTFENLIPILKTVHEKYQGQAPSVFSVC
JAK2, sequence (O60674 whole entry): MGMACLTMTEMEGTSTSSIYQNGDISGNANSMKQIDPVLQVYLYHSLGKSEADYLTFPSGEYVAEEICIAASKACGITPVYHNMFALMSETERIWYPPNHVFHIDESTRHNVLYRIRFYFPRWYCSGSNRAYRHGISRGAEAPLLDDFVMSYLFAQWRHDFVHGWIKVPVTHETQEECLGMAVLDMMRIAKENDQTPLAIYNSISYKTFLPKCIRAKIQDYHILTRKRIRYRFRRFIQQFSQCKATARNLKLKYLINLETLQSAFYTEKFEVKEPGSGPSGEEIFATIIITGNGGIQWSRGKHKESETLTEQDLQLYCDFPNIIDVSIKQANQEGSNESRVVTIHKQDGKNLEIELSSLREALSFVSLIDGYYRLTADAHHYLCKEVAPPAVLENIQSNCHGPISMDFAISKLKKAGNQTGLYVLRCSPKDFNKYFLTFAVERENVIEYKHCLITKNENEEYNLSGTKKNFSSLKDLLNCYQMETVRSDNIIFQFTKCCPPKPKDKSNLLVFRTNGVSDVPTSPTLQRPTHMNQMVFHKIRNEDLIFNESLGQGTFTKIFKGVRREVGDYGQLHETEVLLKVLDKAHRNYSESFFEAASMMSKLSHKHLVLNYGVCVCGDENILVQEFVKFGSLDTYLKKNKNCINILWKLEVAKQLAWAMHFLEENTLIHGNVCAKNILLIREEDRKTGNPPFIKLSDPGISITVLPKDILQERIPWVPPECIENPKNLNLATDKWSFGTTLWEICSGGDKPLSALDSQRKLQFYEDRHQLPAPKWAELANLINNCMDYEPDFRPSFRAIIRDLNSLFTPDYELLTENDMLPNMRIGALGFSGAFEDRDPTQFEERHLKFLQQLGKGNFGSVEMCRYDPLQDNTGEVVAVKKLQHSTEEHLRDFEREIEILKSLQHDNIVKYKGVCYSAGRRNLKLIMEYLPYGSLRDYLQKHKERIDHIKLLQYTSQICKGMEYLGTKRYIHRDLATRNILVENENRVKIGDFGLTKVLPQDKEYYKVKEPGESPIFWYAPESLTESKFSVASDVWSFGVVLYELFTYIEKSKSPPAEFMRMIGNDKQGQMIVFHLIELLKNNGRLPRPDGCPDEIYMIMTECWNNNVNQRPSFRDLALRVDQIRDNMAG

Row | SMILES | IC50 (JAK1) | selectivity for JAK1 over JAK2 (JAK1) | selectivity for JAK1 over JAK3 (JAK1) | IC50 (JAK3) | IC50 (TYK2) | IC50 (JAK2) | Percent Remaining (%) 0 min [1] | Percent Remaining (%) 5 min [1] | Percent Remaining (%) 15 min [1] | Percent Remaining (%) 30 min [1] | Percent Remaining (%) 45 min [1] | half-lives as compared with the reference compounds [1] | CLint scaled at 1 µM [1] | half-life at 1 µM [1]
1 | CNC(=O)N[C@H]1CC[C@H](N(C)c2ncnc3[nH]ccc23)CC1 [Compound 1, 1-methyl-3-((1r,4r)-4-(methyl(7H-pyrrolo[2,3-d]pyrimidin-4-yl)amino)cyclohexyl)urea] | 156 nM | 87% | 3.96 fold | 618 nM | 3820 nM | 292 nM | – | – | – | – | – | – | – | –
2 | CCNC(=O)N[C@H]1CC[C@H](N(C)c2ncnc3[nH]ccc23)CC1 [Compound 2, 1-ethyl-3-((1r,4r)-4-(methyl(7H-pyrrolo[2,3-d]pyrimidin-4-yl)amino)cyclohexyl)urea] | 43 nM | 2.9 fold | 10.4 fold | 447 nM | 1790 nM | 126 nM | – | – | – | – | – | – | – | –
3 | CCCNC(=O)N[C@H]1CC[C@@H](N(C)c2ncnc3[nH]ccc23)CC1 [Compound 3, 1-propyl-3-((1r,4r)-4-(methyl(7H-pyrrolo[2,3-d]pyrimidin-4-yl)amino)cyclohexyl)urea] | 19 nM | 3.7 fold | 10.9 fold | 207 nM | 1510 nM | 70 nM | 100.00% | 94.76% | 86.94% | 75.53% | 73.67% | dramatically improved half-lives | 35.4 mL/min/kg | 1.63 h
4 | CC(C)NC(=O)N[C@H]1CC[C@H](N(C)c2ncnc3[nH]ccc23)CC1 [Compound 4, 1-isopropyl-3-((1r,4r)-4-(methyl(7H-pyrrolo[2,3-d]pyrimidin-4-yl)amino)cyclohexyl)urea] | 40 nM | 3.35 fold | 15.4 fold | 615 nM | 2710 nM | 134 nM | – | – | – | – | – | – | – | –
5 | CN(c1ncnc2[nH]ccc12)[C@H]1CC[C@H](NC(=O)NCC#N)CC1 [Compound 5, 1-(cyanomethyl)-3-((1r,4r)-4-(methyl(7H-pyrrolo[2,3-d]pyrimidin-4-yl)amino)cyclohexyl)urea] | 7.5 nM | 2.4 fold | 3.5 fold | 26 nM | 415 nM | 18 nM | 100.00% | 100.66% | 95.39% | 87.57% | 86.91% | dramatically improved half-lives | 18.2 mL/min/kg | 3.16 h
6 | CN(c1ncnc2[nH]ccc12)[C@H]1CC[C@H](NC(=O)NCC(F)(F)F)CC1 [Compound 6, 1-((1r,4r)-4-(methyl(7H-pyrrolo[2,3-d]pyrimidin-4-yl)amino)cyclohexyl)-3-(2,2,2-trifluoroethyl)urea] | 2.3 nM | 6 fold | 18.3 fold | 42 nM | 335 nM | 14 nM | 100.00% | 93.91% | 85.39% | 76.25% | 71.95% | dramatically improved half-lives | 36.5 mL/min/kg | 1.58 h
7 | CNS(=O)(=O)C[C@H]1CC[C@H](N(C)c2ncnc3[nH]ccc23)CC1 [Oclacitinib, reference compound] | 6.6 nM | 45% | 10.6 fold | 70 nM | 77 nM | 9.3 nM | 100.00% | 94.12% | 82.56% | 68.65% | 62.97% | – | 53 mL/min/kg | 1.09 h
8 | O=C(c1ccc(F)cc1)C1CCN(CCn2c(=O)[nH]c3ccccc3c2=O)CC1 [ketanserin, reference compound] | – | – | – | – | – | – | 100.00% | 82.91% | 62.01% | 42.37% | 36.16% | – | 114 mL/min/kg | 0.505 h
